{"source": "paper PMC6013488", "about": "“A widely-applicable high-throughput cellular thermal shift assay (CETSA) using split Nano Luciferase” (Scientific Reports, 2018)", "key": {"[1]": {"target": "T1, human lactate dehydrogenase 5 (Homo sapiens, UniProt P00338)", "T1 construct": "purchased Meridian Life Science, Inc. A38558H", "experiment": "LDHA biochemical (enzymatic) assay", "conditions": "MIPE library screen", "protocol": "The LDHA biochemical assay was performed as previously described. Briefly, 3 µL of human lactate dehydrogenase 5 (2 nM final) (no. A38558H, Meridian Life Science, Inc.) in LDH assay buffer (200 mM Tris HCl, pH 7.4, 100 µM EDTA, and 0.01% Tween-20) was added to a black solid bottom 1536-well assay plate (Greiner Bio-One). Following compound pin transfer (23 nL), 1 µL of substrate solution containing NADH (0.06 mM final) and sodium pyruvate (0.2 mM final) (Sigma-Aldrich) in LDH assay buffer was dispensed to initiate the reaction. After 5 min incubation at room temperature, 1 µL of detection reagent [C. kluyveri diaphorase (0.133 mg/mL final, Sigma-Aldrich) and resazurin sodium salt (37 µM final, Sigma-Aldrich) in LDH assay buffer] was added to each well. Plates were immediately transferred to a ViewLux reader and any resulting resorufin fluorescence was measured (ex 540 nm, em 590 nm) at 0 and 10 min. Fluorescence was normalized using enzyme-free and DMSO-treated control wells on each plate."}, "[2]": {"target": "T2, LDHA-86b (Homo sapiens, UniProt P00338)", "T2 construct": "Size (a.a., untagged); expressed in transfected cells; host or cells: HEK293T", "experiment": "SplitLuc CETSA of LDHA-86b (HEK293T)", "assay_type": "cell-based", "conditions": "63 °C for 3.5 min, 384-well PCR plates", "protocol": "Cells were transfected in T75 flasks using a reverse transfection procedure, where 9 mL of complexes (45 µL Lipofectamine 2000 and 22.5 µg DNA) was combined with 10 mL of HEK293T cell suspension (1 × 10^6 cells/mL, 10 million cells total). After 24 h, cells were harvested by trypsinization, resuspended at 1 × 10^6 cells/ml as described above and dispensed (15 µL cells/well) into 384-well PCR plates (Roche) using a Multidrop Combi (ThermoFisher). Compounds (63 nL) or DMSO vehicle control (63 nL) were subsequently pinned using a pin tool (GNF) and incubated for 1 h at 37 °C. Plates were sealed and heated at the indicated temperature for 3.5 min and cooled to 25 °C using AB qPCR machine (Roche) using ramp speed of 1.5 °C/sec for heating phase and max ramp rate for the cooling phase. […] Samples were analyzed for luminescence intensity using a ViewLux reader.\nCells were transfected and harvested as above (384-well protocol). Cells were dispensed (5 µL cell/well) into 1,536-well white plates (Aurora, cyclic olefin polymer, cat# EWB041000A) using a Multidrop Combi. Compounds (23 nL) were subsequently pinned using a pin tool (Wako Automation) and incubated for 1 h at 37 °C. Plates were heated at the indicated temperature and time using a heating block (see below) and cooled to 25 °C. […] Plates were centrifuged and analyzed for luminescence intensity using a ViewLux reader. […]"}}}
{"smiles": "COc1ncc(-c2ccc3c(Nc4cc(Oc5cc(F)cc(F)c5)cc(C(=O)O)c4)c(S(=O)(=O)NC4CC4)cnc3c2)c(OC)n1", "note": "[GSK2837808A]", "values": [{"measurement": "activity in biochemical screen for LDHA enzymatic activity", "setting": "[1]", "value": "common hit"}, {"measurement": "thermal stabilization of LDHA-86b, re-test of screen hits", "setting": "[2]", "value": "confirmed"}]}
